Test results reported in patent US6277854A, “Tricyclic antitumor farnesyl protein transferase inhibitors” (Schering Corporation, priority 1999, dated 2001).
pIC50: −log10 of the molar value.

Key:
[1] = tested on: Ras processing (val12-Ha-Ras-CVLS) in COS monkey kidney cells; assay: Cell-based assay: inhibition of Ras processing in COS cells (transient expression of val12-Ha-Ras-CVLS); conditions: Primates
Method: Following electroporation, cells were plated into 6-well tissue culture dishes containing 1.5 ml of Dulbecco's-modified Eagle's media (GIBCO, Inc.) supplemented with 10% fetal calf serum and the appropriate farnesyl protein transferase inhibitors. After 24 hours, media was removed and fresh media containing the appropriate drugs was re-added.
48 hours after electroporation cells were examined under the microscope to monitor disordered cell growth induced by transforming Ras. Cells expressing transforming Ras become more rounded and refractile and overgrow the monolayer, reminiscent of the transformed phenotype. Cells were then photographed, washed twice with 1 ml of cold phosphate-buffered saline (PBS) and removed from the dish by scraping with a rubber policeman into 1 ml of a buffer containing 25 mM Tris, pH 8.0; 1 mM ethylenediamine tetraacetic acid; 1 mM phenylmethylsulfonyl fluoride; […]; and 0.1 mM pepstatin. Cells were lysed by homogenization and cell debris was removed by centrifugation at 2000×g for 10 min.
Cellular protein was precipitated by addition of ice-cold trichloroacetic acid and redissolved in […] of SDS-electrophoresis sample buffer. […] Proteins resolved on the gels were electroblotted onto nitrocellulose membranes for immunodetection.
After washing, membranes were incubated for one hour at room temperature with a 1:5000 dilution of secondary antibody, rabbit anti-rat IgG conjugated to horseradish peroxidase, in PBS containing 1% fetal calf serum. The presence of processed and unprocessed Ras-CVLS or Ras-CVLL was detected using a colorimetric peroxidase reagent (4-chloro-1-naphthol) as described by the manufacturer (Bio-Rad).

[2] = target: farnesyl protein transferase; assay: In vitro enzyme assay: inhibition of farnesyl protein transferase (FPT), [3H]farnesyl transfer to Ras-CVLS; assay type: biochemical, rat (brain); human (expressed in E. coli)
From the text: 1. In vitro enzyme assays: Inhibition of famesyl protein transferase and geranylgeranyl protein transferase.
Farnesyl protein transferase (FPT) was partially purified from rat brain by ammonium sulfate fractionation followed by Q-Sepharose (Pharmacia, Inc.) anion exchange chromatography essentially as described by Yokoyama et al (Yokoyama, K., et al., (1991), A protein geranylgeranyltransferase from bovine brain: Implications for protein prenylation specificity, Proc. Natl. Acad. Sci USA 88: 5302-5306, the disclosure of which is incorporated herein by reference thereto). Human famesyl protein transferase was also expressed in E. coli, using cDNA clones encoding both the a and b subunits. The methods used were similar to those published (Omer, C. et al., (1993), Characterization of recombinant human famesyl protein transferase: Cloning, expression, farnesyl diphosphate binding, and functional homology with yeast prenyl-protein transferases, Biochemistry 32:5167-5176). Human famesyl protein transferase was partially-purified from the soluble protein fraction of E. coli as described above. […] Two forms of val^12 -Ha-Ras protein were prepared as substrates for these enzymes, differing in their carboxy terminal sequence. One form terminated in cysteine-valine-leucine-serine (Ras-CVLS) the other in cystein-valine-leucine-leucine (Ras-CVLL). Ras-CVLS is a substrate for the famesyl protein transferase while Ras-CVLL is a substrate for geranylgeranyl protein transferase I. The cDNAs encoding these proteins were constructed so that the proteins contain an amino-terminal extension of 6 histidine residues. Both proteins were expressed in Escherichia coli and purified using metal chelate affinity chromatography. The radiolabelled isoprenyl pyrophosphate substrates, [^3 H]farnesyl pyrophosphate and [^3 H]geranylgeranyl pyrophosphate, were purchased from DuPon/New England Nuclear.
Several methods for measuring farnesyl protein transferase activity have been described (Reiss et al 1990, Cell 62: 81; Schaber et al 1990, J. Biol. Chem. 265: 14701; Manne et al 1990, PNAS 87: 7541; and Barbacid & Manne 1993, U.S. Pat. No. 5,185,248). […] The reaction was allowed to proceed for 30 minutes at room temperature and then stopped with 0.5 ml of 4% sodium dodecyl sulfate (SDS) followed by 0.5 ml of cold 30% TCA. Samples were allowed to sit on ice for 45 minutes and precipitated Ras protein was then collected on GF/C filter paper mats using a Brandel cell harvester. Filter mats were washed once with 6% TCA, 2% SDS and radioactivity was measured in a Wallac 1204 Betaplate BS liquid scintillation counter. Percent inhibition was calculated relative to the DMSO vehicle control.

pIC50 [2]	Structure (SMILES)	pIC50 [1]
7.72	COC(=O)CCCC(=O)N1CCC([C@H]2c3ncc(Br)cc3CCc3cc(Cl)cc(Br)c32)CC1 [Example 51, (+)-METHYL 4-(3,10-DIBROMO-8-CHLORO-6,11-DIHYDRO-5H-BENZO[5,6]CYCLO-HEPTA[1,2-b]PYRIDIN-11 (R)-YL)-DELTA-OXO-1-PIPERIDININE PENTANOATE]	
7.36	O=C(O)CCCC(=O)N1CCC([C@H]2c3ncc(Br)cc3CCc3cc(Cl)cc(Br)c32)CC1 [Example 52, (+)-SODIUM 4-(3,10-DIBROMO-8-CHLORO-6,11-DIHYDRO-5H-BENZO[5,6]CYCLO-HEPTA[1,2-b]PYRIDIN-11(R)-YL)-DELTA-OXO-1-PIPERIDININE PENTANOATE]	
8.00	NC(=O)CCCC(=O)N1CCC([C@H]2c3ncc(Br)cc3CCc3cc(Cl)cc(Br)c32)CC1 [Example 53, (+)-4-(3,10-DIBROMO-8-CHLORO-6,11-DIHYDRO-5H-BENZO[5,6]CYCLO-HEPTA[1,2-b]PYRIDIN-11(R)-YL)-DELTA-OXO-1-PIPERIDININE PENTANAMIDE]	
7.82	COC(=O)CCCCC(=O)N1CCC([C@H]2c3ncc(Br)cc3CCc3cc(Cl)cc(Br)c32)CC1 [Example 54, (+)-METHYL 4-(3,10-DIBROMO-8-CHLORO-6,11-DIHYDRO-5H-BENZO[5,6]CYCLO-HEPTA[1,2-b]PYRIDIN-11(R)-YL)-EPSILON-OXO-1-PIPERIDININE HEXANOATE]	
7.77	O=C(O)CCCCC(=O)N1CCC([C@H]2c3ncc(Br)cc3CCc3cc(Cl)cc(Br)c32)CC1 [Example 55, (+)-SODIUM 4-(3,10-DIBROMO-8-CHLORO-6,11-DIHYDRO-5H-BENZO[5,6]CYCLO-HEPTA[1,2-b]PYRIDIN-11(R)-YL)-EPSILON-OXO-1-PIPERIDININE HEXANOATE]	
8.15	NC(=O)CCCCC(=O)N1CCC([C@H]2c3ncc(Br)cc3CCc3cc(Cl)cc(Br)c32)CC1 [Example 56, (+)-4-(3,10-DIBROMO-8-CHLORO-6,11-DIHYDRO-5H-BENZO[5,6]CYCLO-HEPTA[1,2-b]PYRIDIN-11(R)-YL)-EPSILON-OXO-1-PIPERIDININE HEXANAMIDE]	
7.96	COC(=O)CCCCCC(=O)N1CCC([C@H]2c3ncc(Br)cc3CCc3cc(Cl)cc(Br)c32)CC1 [Example 57, (+)-METHYL 4-(3,10-DIBROMO-8-CHLORO-6,11-DIHYDRO-5H-BENZO[5,6]CYCLO-HEPTA[1,2-b]PYRIDIN-11(R)-YL)-OMEGA-OXO-1-PIPERIDININE HEPTANOATE]	
8.04	O=C(O)CCCCCC(=O)N1CCC([C@H]2c3ncc(Br)cc3CCc3cc(Cl)cc(Br)c32)CC1 [Example 58, (+)-SODIUM 4-(3,10-DIBROMO-8-CHLORO-6,11-DIHYDRO-5H-BENZO[5,6]CYCLO-HEPTA[1,2-b]PYRIDIN-11 (R)-YL)-OMEGA-OXO-1-PIPERIDININE HEPTANOATE]	6.52

Structure (SMILES)	pIC50 [2]	pIC50 [1]
CN(C)CCCC(=O)N1CCC(C2c3ncc(Br)cc3CCc3cc(Cl)cc(Cl)c32)CC1 (single isomer, unassigned) [Example 6]	8.19	7.46
NC(=O)CCCCCC(=O)N1CCC([C@H]2c3ncc(Br)cc3CCc3cc(Cl)cc(Br)c32)CC1 [Example 59, (+)-4-(3,10-DIBROMO-8-CHLORO-6,11-DIHYDRO-5H-BENZO[5,6]CYCLO-HEPTA[1,2-b]PYRIDIN-11(R)-YL)-OMEGA-OXO-1-PIPERIDININE HEPTANAMIDE]	8.48	7.82
